Patent publication US10745401B2, “Condensed lactam derivative” (Sumitomo Dainippon Pharma Co., Ltd., priority 2018, dated 2020)

Assays:
human 5-HT1A receptor [1] = target: T1, human 5-HT1A receptor (Homo sapiens (Human), UniProt P08908); test: Test 1: binding activity for human 5-HT1A receptor ([3H]8-OH-DPAT, CHO cell membrane fraction)
Protocol: (§1) Test 1: Evaluation of Binding Activity for Human 5-HT1A Receptor, Human 5-HT2A Receptor, and Human D2 Receptor
(§2) Binding affinity of the present compound for human 5-HT1A receptor, human 5-HT2A receptor, and human D2 receptor was measured by the following procedures.
(§3) Each mixture was incubated at room temperature for 60 minutes. Then, the mixture was added quickly on a glassfiber filter plate (Multiscreen FB, Millipore, Inc.) coated with 0.3% aqueous polyethylenimine, and vacuum-filtered. Radioactivity remaining on the filter was measured with a liquid scintillation counter (PerkinElmer, Inc.). Binding inhibition rate was calculated from the following formula.
IC50 value was calculated by Hill analysis (Physiology, 1910, 40, 190-200). Ki of each compound was calculated from the following formula. Binding inhibition constant (Ki)=IC50/(1+S/Kd) wherein S is concentration of ligand; Kd is a binding dissociation constant of ligand to membrane, which is calculated from a saturated binding experiment conducted with the same cell membrane. A small Ki value means strong binding ability to a receptor.

human D2 receptor = human D2 receptor (Homo sapiens (Human), UniProt P14416); test: Test 1: binding activity for human D2 receptor ([3H]Spiperone, CHO cell membrane fraction); settings: human D2 receptor, [3H]Spiperone
human D2 receptor, sequence (P14416 whole entry): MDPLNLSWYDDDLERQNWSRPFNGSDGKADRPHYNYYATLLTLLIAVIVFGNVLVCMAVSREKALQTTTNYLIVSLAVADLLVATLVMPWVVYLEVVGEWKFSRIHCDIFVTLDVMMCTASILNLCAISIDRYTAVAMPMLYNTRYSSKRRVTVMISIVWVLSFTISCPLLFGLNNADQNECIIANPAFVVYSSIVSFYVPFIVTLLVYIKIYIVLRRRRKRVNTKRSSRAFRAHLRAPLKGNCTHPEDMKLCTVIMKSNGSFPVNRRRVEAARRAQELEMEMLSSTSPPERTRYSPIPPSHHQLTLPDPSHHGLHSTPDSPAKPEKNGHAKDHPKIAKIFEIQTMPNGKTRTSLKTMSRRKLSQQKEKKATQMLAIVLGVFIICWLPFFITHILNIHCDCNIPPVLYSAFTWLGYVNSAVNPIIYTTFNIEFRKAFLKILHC
Protocol: as §1, §2, §3
Ki of each compound was calculated from the following formula. Binding inhibition constant (Ki)=IC50/(1+S/Kd) wherein S is concentration of ligand; Kd is a binding dissociation constant of ligand to membrane, which is calculated from a saturated binding experiment conducted with the same cell membrane. A small Ki value means strong binding ability to a receptor.

human 5-HT1A receptor [2] = target: T1, human 5-HT1A receptor; test: Test 2: agonist activity for human 5-HT1A receptor ([35S]GTPγS binding); format: biochemical; settings: for EC50: [35S]GTPγS binding, concentration at which half the activity of Emax was obtained; for Emax at 10 µM: agonist activity in the presence of 10 μM of compound, relative to 100 μmol/L 5-HT
Protocol: Test 2: Evaluation of Agonist Activity for Human 5-HT1A Receptor
CHO cell membrane fraction in which human 5-HT1A receptor was expressed as used in Test 1 was purchased. To a buffer containing guanosine diphosphate were added a test compound dissolved in DMSO, each receptor membrane sample diluted with buffer, and [^35S] Guanosine 5′-O-[gamma-thio]triphosphate (GTPγS). The mixture was incubated at room temperature for 60 minutes. Then, the mixture was added quickly on a glassfiber filter plate (Multiscreen FB, Millipore, Inc.), and vacuum-filtered. Radioactivity remaining on the […] was measured with a liquid scintillation counter. Agonist activity was calculated from the following formula.

[3] = Test 4: metabolic stability test in human hepatic microsome; format: in vitro ADME; settings: 0.1 mg/mL microsome, 0.1 μmol/L compound, 37° C., 30 minutes
Protocol: Test 4: Metabolic Stability Test in Human Hepatic Microsome
The stability of the present compound in human hepatic microsome metabolism was evaluated as mentioned below. Human hepatic microsome was obtained from Xenontech. Human hepatic microsome, NADPH, and each test compound were mixed in 25 mmol/L phosphate buffer solution (pH 7.4) to reach the following concentrations as shown below, and the mixture was incubated at 37° C. for 30 minutes. • Human hepatic microsome: 0.1 mg/mL • NAPDH: 3.2 mmol/L • Test compound: 0.1 μmol/L
The residual ratio of the test compound in each sample after 30 minutes was measured by LC-MS, and the metabolic stability in human hepatic microsome was calculated from the following formula. Metabolic stability in human hepatic microsome (mL/min/mg protein)=−LN (residual ratio)/30/0.1

hERG channel = hERG channel (Homo sapiens (Human), UniProt Q12809); test: Test 6-1: inhibitory activity for hERG channel (auto patch clamp, Qpatch); format: cell-based; settings: whole cell auto patch clamp, hERG-CHO cells; read-out: hERG inhibition IC50
hERG channel, sequence (Q12809 whole entry): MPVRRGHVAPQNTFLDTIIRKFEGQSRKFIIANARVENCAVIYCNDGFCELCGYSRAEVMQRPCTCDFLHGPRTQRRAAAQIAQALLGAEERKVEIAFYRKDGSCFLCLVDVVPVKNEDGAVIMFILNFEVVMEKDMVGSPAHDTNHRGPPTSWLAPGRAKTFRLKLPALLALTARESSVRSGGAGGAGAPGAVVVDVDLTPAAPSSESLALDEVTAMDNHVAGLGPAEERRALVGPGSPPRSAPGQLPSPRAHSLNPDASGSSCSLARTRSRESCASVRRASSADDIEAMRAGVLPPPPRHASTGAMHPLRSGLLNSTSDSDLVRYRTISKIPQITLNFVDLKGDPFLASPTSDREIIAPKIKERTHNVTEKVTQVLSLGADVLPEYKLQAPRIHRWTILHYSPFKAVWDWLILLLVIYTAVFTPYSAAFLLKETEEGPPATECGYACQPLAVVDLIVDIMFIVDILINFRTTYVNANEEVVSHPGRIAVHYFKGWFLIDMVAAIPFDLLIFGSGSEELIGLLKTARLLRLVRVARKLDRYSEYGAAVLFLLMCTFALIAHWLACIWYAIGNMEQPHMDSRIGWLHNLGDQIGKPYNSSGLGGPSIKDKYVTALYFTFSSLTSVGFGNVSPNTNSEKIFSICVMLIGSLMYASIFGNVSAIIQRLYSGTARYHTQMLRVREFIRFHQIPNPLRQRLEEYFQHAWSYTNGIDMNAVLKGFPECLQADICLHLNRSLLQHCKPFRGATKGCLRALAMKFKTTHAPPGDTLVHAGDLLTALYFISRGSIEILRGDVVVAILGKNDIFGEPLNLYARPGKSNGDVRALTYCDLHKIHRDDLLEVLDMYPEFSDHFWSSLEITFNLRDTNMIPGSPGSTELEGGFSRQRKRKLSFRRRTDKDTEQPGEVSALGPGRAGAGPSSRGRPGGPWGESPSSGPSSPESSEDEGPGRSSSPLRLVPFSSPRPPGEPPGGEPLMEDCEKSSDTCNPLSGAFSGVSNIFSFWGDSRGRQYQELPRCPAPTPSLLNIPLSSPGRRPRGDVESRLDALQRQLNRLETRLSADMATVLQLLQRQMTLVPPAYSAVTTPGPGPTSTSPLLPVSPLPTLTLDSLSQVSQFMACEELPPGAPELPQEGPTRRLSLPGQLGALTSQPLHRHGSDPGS
Protocol: Test 6-1: Evaluation of Inhibitory Activity for hERG Channel
Inhibitory activity of the present compound for hERG channel was measured by whole cell patch clamp method with an auto patch clamp system using CHO cells in which hERG channel involved in human rapidly activating delayed rectifier potassium current (IKr) was forcibly expressed.
hERG-CHO cells purchased from ChanTest Cop. were cultured in a CO2 incubator at 37° C., and dissociated from a flask with trypsin shortly before the measurement of hERG current, to prepare a cell suspension.
Extracellular fluid: 2 mmol/L CaCl2, 1 mmol/L MgCl2, 10 mmol/L HEPES, 4 mmol/L KCl, 145 mmol/L NaCl, 10 mmol/L Glucose
Intracellular fluid: 5.4 mmol/L CaCl2, 1.8 mmol/L MgCl2, 10 mmol/L HEPES, 31 mmol/L KOH, 10 mmol/L EGTA, 120 mmol/L KCl, 4 mmol/L Na2-ATP
Test compound solution: Test compound was dissolved in DMSO to reach the concentration of 2 mmol/L or 20 mmol/L, in order to prepare a test compound solution. […] (Measurement of Current Value and Data Analysis)
The cell suspension, the extracellular fluid, the intracellular fluid, and the measurement plate were set in the auto patch clamp system, and hERG current was measured by whole cell patch clamp method. […] Each pulse interval was 15 seconds. The data analysis was carried out with Qpatch Assay Software (Biolin Scientific). The test was carried out by applying incrementally 4 concentrations of each test compound, and the average of the maximum peak tail currents which were obtained from the last 3 stimulations in each concentration was determined as the evaluated data. Based on the current inhibition rate for a pre-applied current at each concentration of each test compound, IC50 value was calculated by Hill equation with the software.

T1 sequence (P08908 whole entry): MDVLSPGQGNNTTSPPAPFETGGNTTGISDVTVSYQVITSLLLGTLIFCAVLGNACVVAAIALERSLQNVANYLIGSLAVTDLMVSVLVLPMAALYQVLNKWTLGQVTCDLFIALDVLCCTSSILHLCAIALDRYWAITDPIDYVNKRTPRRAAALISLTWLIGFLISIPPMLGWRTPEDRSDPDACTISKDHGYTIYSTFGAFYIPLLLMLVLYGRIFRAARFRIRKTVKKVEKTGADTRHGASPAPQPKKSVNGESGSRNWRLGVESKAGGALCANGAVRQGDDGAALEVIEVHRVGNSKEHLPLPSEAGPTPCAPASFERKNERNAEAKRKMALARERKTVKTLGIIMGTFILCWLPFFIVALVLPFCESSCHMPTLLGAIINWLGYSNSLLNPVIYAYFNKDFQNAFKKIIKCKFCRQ

| Structure (SMILES) | Ki (human 5-HT1A receptor [1]) [nM] | Ki (human D2 receptor) [nM] | EC50 (human 5-HT1A receptor [2]) [nM] | Emax at 10 µM (human 5-HT1A receptor [2]) [%] | Metabolic stability in human hepatic microsome [3] [mL/min/mg protein] | IC50 (hERG channel) [nM] |
| --- | --- | --- | --- | --- | --- | --- |
| Cc1cncc2c1CCN(CCN1CCC(c3noc4ccccc34)CC1)C2=O [Example 138] | 27.6 | 76 | 100 | 32 | 0.083 | 1200 |
| Cc1nn(C)c2c1C(=O)N(CCN1CCN(c3nsc4ccccc34)CC1)CC2 [Example 105, 5-{2-[4-(1,2-Benzoisothiazol-3-yl)piperazin-1-yl]ethyl}-1,3-dimethyl-1,5,6,7-tetrahydro-4H-pyrazolo[4,3-c]pyridin-4-one] | 6 | 194 | 14 | 74 | 0.101 | 7900 |
| O=C1c2ncccc2CCN1CCN1CCN(c2nsc3cc(F)ccc23)CC1 [Example 27] | 6.04 | 230 | 55.4 | 58 | 0.048 | 1300 |
| CC(C)n1cc2c(n1)CCN(CCN1CCN(c3nsc4ccccc34)CC1)C2=O [Example 162] | 13.8 | 508 | 55 | 61 | 0.196 | 1200 |
| Cn1ncc2c1C(=O)N(CCN1CCC(c3noc4ccccc34)CC1)CCC2 [Example 155] | 14 | 114 | 74.2 | 63 | 0.121 | 700 |
| [2H]C([2H])([2H])Oc1cc2c(cn1)C(=O)N(CCN1CCN(c3nsc4ccccc34)CC1)CC2([2H])[2H] [Example 107, 2-{2-[4-(1,2-Benzoisothiazol-3-yl)piperazin-1-yl]ethyl}-6-[(^2H3)methyloxy] (4,4-^2H2)-3,4-dihydro-2,7-naphthyridin-1(2H)-one] | 0.08 | 244 | 7.67 | 64 | 0.210 | 1700 |
| CCn1cc2c(n1)CCN(CCN1CCN(c3nsc4ccccc34)CC1)C2=O [Example 163] | 2.4 | 766 | 11 | 67 | 0.118 | 1400 |
| Cc1cc2c(n1C)CCCN(CCN1CCN(c3nsc4ccccc34)CC1)C2=O [Example 167] | 0.14 | 71 | 0.84 | 60 | 0.413 | 1800 |
| Cn1cnc2c1CCN(CCN1CCC(c3noc4ccccc34)CC1)C2=O [Example 16] | 18.6 | 34000 | 300 | 40 | <0.01 | > 10000 |
| O=C1c2[nH]ncc2CCN1CCN1CCC(c2noc3ccccc23)CC1 [Example 98, 6-{2-[4-(1,2-Benzoisoxazol-3-yl)piperidin-1-yl]ethyl}-1,4,5,6-tetrahydro-7H-pyrazolo[3,4-c]pyridin-7-one] | 11.6 | 312 | 755 | 43 | 0.013 | 1100 |
| COc1cc2c(cn1)C(=O)N(CCN1CCN(c3noc4ccccc34)CC1)CC2 [Example 20] | 0.77 | 1890 | 4.72 | 52 | 0.091 | 5400 |
| Cc1noc2c1C(=O)N(CCN1CCC(c3noc4ccccc34)CC1)CC2 [Example 33] | 9.35 | 1010 | 463 | 49 | 0.074 | 600 |
| O=C1c2c(Br)n[nH]c2CCN1CCN1CCC(c2noc3ccccc23)CC1 [Example 192, 5-{2-[4-(1,2-Benzoisoxazol-3-yl)piperidin-1-yl]ethyl}-3-bromo-1,5,6,7-tetrahydro-4H-pyrazolo[4,3-c]pyridin-4-one] | 200 | 219 | 7670 | 11 | <0.05 | 700 |
| Cn1cc2c(n1)CCCN(CCN1CCC(c3noc4ccccc34)CC1)C2=O [Example 41] | 10.9 | 131 | 79.3 | 45 | <0.01 | 500 |
| COc1cc2c(cn1)C(=O)N(CCN1CCC(c3noc4ccccc34)CC1)CC2 [Example 14] | 0.15 | 136 | 2.87 | 42 | <0.01 | 800 |
| O=C1c2nc(F)ccc2CCN1CCN1CCC(c2noc3ccccc23)CC1 [Example 188, 7-{2-[4-(1,2-Benzoisoxazol-3-yl)piperidin-1-yl]ethyl}-2-fluoro-6,7-dihydro-1,7-naphthyridin-8(5H)-one] | 7.85 | 703 | 82.6 | 53 | <0.05 | 1900 |
